Results as given in patent US9618513B2, “Compositions and methods for detecting and treating colorectal cancer” (The Regents of the University of Michigan, priority 2014, dated 2017).

Columns and labels:
DLD-1 colon cancer cells = experiment: Colon cancer sphere assay, DLD-1 cells; format: cell-based, human
Source text: (A), IL-22 is expressed in colon cancer tissues. IL-22 mRNA was detected by real-time PCR in colon cancer tissues and peripheral blood. *P<0.05 compared to blood, 20 colon cancer patients. (B-D), Endogenous IL-22 promotes colon carcinogenesis. Single cells (10^7) isolated from colon cancer tissue were mixed with anti-IL-22 antibody or control mAb, and then subcutaneously injected to NSG mice. Tumor growth (B), incidence (C), and animal survival (D) are shown. (P<0.05 for all, n=5 per group). (E-G) Recombinant IL-22 promotes colon carcinogenesis. DLD-1 colon cancer cells (10^5) were pre-incubated with IL-22 (20 ng/ml) for 1 hour, and then subcutaneously injected to NSG mice. Tumor growth (E), incidence (F), and animal survival (G) are shown. (P<0.05 for all, n=5 per group). (H, I) IL-22 enhances colon cancer sphere formation. DLD-1 colon cancer cells were pre-incubated for 24 hours with IL-22. […] ALDH activity was determined by FACS based on aldefluor fluorescence. […] Results are expressed as fold changes of ALDH expression. […] The mRNA of stem cell core gene was detected by real-time PCR (K) and proteins were detected by western blotting (L, M). […]
(A) IL-22 induces H3K79me2 in colon cancer cells. […] Total histone modifications were analyzed by western blot. […] Sphere numbers were recorded. […] DOT1L complex gene expression was quantified by real-time PCR. […] Sphere numbers were recorded. […]

[1] = system: H3K79me2 on NANOG, SOX2, POU5F1 promoters; experiment: H3K79me2-ChIP at core stem cell gene promoters; format: cell-based, human
Method: (A) IL-22 induces H3K79me2 in colon cancer cells. Colon cancer cells were treated with IL-22 for 48 hours. Total histone modifications were analyzed by western blot. (B, C) DOT1L inhibitor, EPZ004777 suppresses colon cancer sphere formation induced by IL-22. Colon cancer sphere assay was performed in the presence of IL-22 and EPZ004777. Sphere numbers were recorded. DLD-1 cells (B), primary colon cancer cells (C). (n=5, P<0.05). (D, E) IL-22 stimulates DOT1L complex gene expression. Colon cancer cells were cultured for 12 hours with IL-22. DOT1L complex gene expression was quantified by real-time PCR. DLD-1 cells (D), primary colon cancer cells (E). (n=3, P<0.05). (F) DOT1L knock down results in reduced colon cancer sphere formation induced by IL-22. Colon cancer sphere assay was performed with colon cancer cells expressing sh-DOT1L or vector in the presence of IL-22. Sphere numbers were recorded. (n=5, P<0.05). (G-I), IL-22 causes higher occupancy of H3K79me2 on core stem cell gene promoters. H3K79me2-ChIP assay was performed in DLD-1 colon cancer cells cultured with IL-22. One of 3 experiments is shown. (J-L), DOT1L inhibitor, EPZ004777 results in reduced occupancy of H3K79 on core stem cell gene promoters induced by IL-22. H3K79me2 ChIP was performed in DLD-1 colon cancer cells cultured with or without IL-22 and EPZ004777. One of three experiments is shown. […]

| Molecule | sphere formation induced by IL-22 (DLD-1 colon cancer cells; DLD-1 cells, in the presence of IL-22, inhibitor 10 uM) | H3K79me2 binding in the stem cell gene promoter sites induced by IL-22 ([1]; DLD-1 with or without IL-22 and EPZ004777) | tumor sphere formation (DLD-1 colon cancer cells; DLD-1 pre-incubated 24 hours with IL-22, 2,000 cells) | H3K79me2 binding in proximal promoter areas of NANOG, SOX2, POU5F1 ([1]; DLD-1 cultured with IL-22) |
| --- | --- | --- | --- | --- |
| CC(C)N(CCCNC(=O)Nc1ccc(C(C)(C)C)cc1)C[C@H]1O[C@@H](n2ccc3c(N)ncnc32)[C@H](O)[C@@H]1O [EPZ004777] | suppressed | reduced |  |  |
| IL-22: recombinant IL-22 (R&D systems), cytokine interleukin-22 |  |  | promoted tumor sphere formation in a dose dependent manner | increase |
